Literature values in paper PMC4860011 (Biochemistry, 2015).

Biological target: bsNOS (Bacillus subtilis, UniProt O34453)
Conditions: read-out: KD of imidazole; used to convert KS,app to KS

Chain of bsNOS (O34453 whole entry): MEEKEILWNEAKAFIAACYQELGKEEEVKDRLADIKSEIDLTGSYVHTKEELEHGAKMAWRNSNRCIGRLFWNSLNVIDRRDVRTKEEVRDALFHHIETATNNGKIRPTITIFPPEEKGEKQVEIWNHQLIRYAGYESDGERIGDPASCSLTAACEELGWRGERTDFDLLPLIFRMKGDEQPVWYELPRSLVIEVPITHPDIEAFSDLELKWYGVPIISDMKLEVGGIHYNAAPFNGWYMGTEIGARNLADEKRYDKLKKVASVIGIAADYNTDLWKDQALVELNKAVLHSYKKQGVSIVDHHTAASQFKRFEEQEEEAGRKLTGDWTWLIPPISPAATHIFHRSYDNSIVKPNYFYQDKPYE

In the case of `c1c[nH]cn1` [imidazole], the Kd is listed as 384 µM.
